Assay results as given in patent publication US20260357349A1, “METHODS OF IDENTIFYING AND TREATING CANCER” (Agency for Science, Technology and Research, priority 2022, published 2026).

Assays:
[1] = test system: NCC432 tumors; experiment: Tumor formation and survival of NSG mice bearing NCC432 isogenic cells; assay type: in vivo
Method: (§1) Colony formation of parental (WT) or PBRM1 knockout (KO) 786-O cells expressing shRNA against non-targeting control (NC), RELA, or NFKB1 cultured with a) 10% or b) 2% serum. c) Gene expression changes of NF-κB target genes in 786-O cells treated with 0.006 μM bortezomib (BTZ) or 0.6 µM Bay 11-7085 for 24 hours (n=3 technical replicates). * p-value<0.05 (two-sided t-test). […] A positive log fold change refers to gain in bortezomib treatment over DMSO. g) Colony formation of 786-O isogenic cells and h) NCC432 isogenic cells treated with bortezomib for a week. Tumor formation of isogenic 786-O cells (i) and NCC432 cells (j) treated with PBS control or 0.5 mg/kg bortezomib (BTZ) in NSG mice. (n=10 tumors per group for 786-O, and n=16 tumors for NCC432 PBS EV group and 12 tumors for NCC432 PBS PBRM1 group and 14 tumors for both NCC432 EV and PBRM1 BTZ groups). Data are presented as mean values+/−SEM. k) Model for the study.
(§2) Data are presented as median+/−25%. Lower whisker is smallest observation greater than or equal to 25% quantile-1.5*interquantile range (IQR). Upper whisker represents the largest observation less than or equal to 75%+1.5*IQR. Amount of normalized RELA protein in the c) input or d) co-immunoprecipitated with SMARCA4 from 3 independent runs. Data are presented as mean values+/−SD. e) Tornado plots of RELA and SMARCA4 ChIP-seq signals in parental 786-0 or PBRM1-KO 786-O cells treated with DMSO or 0.005 μM bortezomib for 9 hours. f) Kaplan-Meier curves of NSG mice bearing 786-O isogenic cells treated with PBRM1 control or 0.5 mg/kg bortezomib (WT: n=10 PBS arm, median survival=39 days; n=10 bortezomib arm, median survival=52 days, HR=4.1, p=3E-6, log rank test; KO: n=10 PBS arm, median survival=35 days, n=10 bortezomib arm, median survival=66 days, HR=4.1, p=3E-6, log rank test). g) Kaplan-Meier curves of NSG mice bearing NCC432 isogenic cells treated with PBRM1 control or 0.5 mg/kg bortezomib (EV: n=16 PBS arm, median survival=42 days; n=14 bortezomib arm, median survival=49 days, HR=2.5, p=0.0009, log rank test; PBRM1: n=12 PBS arm, median survival=55 days; n=14 bortezomib arm, median survival=58 days, HR=1.2, p=0.5, log rank test). h) 786-O PBRM1 WT or KO cells were screened against the high-specific SGC epigenetic probe collection and cell viability was measured by colony formation after 1 week of treatment relative to DMSO control.
(§3) All animal studies were conducted in compliance with animal protocols approved by Institutional Animal Care and Use Committee (IACUC) of Singapore. Female NOD/SCID mice (8-10 week old) were implanted subcutaneously with 1×10^6 786-0 cells with either wildtype PBRM1 or PBRM1 knocked out subcutaneously. Male NSG mice (The Jackson laboratory) were implanted with 1×10^6 A498, NCC2112 or NCC432 with or without PBRM1. Tumor volume was monitored every 3-4 days. Tumor volume was calculated as (length×width×width)×π/6. Animals were sacrificed when the tumor volume exceeded 2000 mm^3.
(§4) Bortezomib […] was given twice weekly (day1, day 4) to male NSG mice (The Jackson laboratory) via the tail vein. Tumor volume and body weight were monitored every 3-4 days.

[2] = test system: SMARCA4 and RELA interaction; experiment: Co-immunoprecipitation of RELA with SMARCA4 after bortezomib; assay type: cell-based, human; details: bortezomib treatment
From the text: Data are presented as median+/−25%. Lower whisker is smallest observation greater than or equal to 25% quantile-1.5*interquantile range (IQR). Upper whisker represents the largest observation less than or equal to 75%+1.5*IQR. Amount of normalized RELA protein in the c) input or d) co-immunoprecipitated with SMARCA4 from 3 independent runs. […]

[3] = test system: NCC432 cells; experiment: Colony formation, NCC432 isogenic cells; assay type: cell-based, human; details: NCC432, a week
Method: as §1
In 6 wells, 1,000 786-O cells or 2,500 NCC432 cells were seeded and treated with DMSO control or increasing concentration of drugs for 7 days and stained with crystal violet. For drug screening, we used SGC epigenetic probe collection. For RNA-seq with bortezomib treatment, 2×10^5 786-O cells were treated with DMSO or 0.005 μM bortezomib and harvested 9 hours after treatment for RNA extraction. […]

[4] = test system: 786-O tumors; experiment: Tumor formation and survival of NSG mice bearing 786-O isogenic cells; assay type: in vivo; details: for median survival: 0.5 mg/kg bortezomib arm n=10; for HR: bortezomib vs PBS, p=3E-6, log rank test
Method: as §1, §2, §3, §4

[5] = test system: NF-κB target genes (786-O cells); experiment: RT-qPCR of NF-κB target genes after NF-κB inhibitor, 786-O; assay type: cell-based, human; details: 0.006 μM bortezomib or 0.6 µM Bay 11-7085, 24 hours
Method: as §1

[6] = test system: 786-O cells; experiment: Colony formation, 786-O isogenic cells; assay type: cell-based, human
Method: as §1
as §2, with “Lower whisker is smallest observation greater than or equal to 25% quantile-1.5*interquantile range (IQR). Upper whisker represents the largest observation less than or equal to 75%+1.5*IQR. Amount of normalized RELA protein in the c) input or d) co-immunoprecipitated with SMARCA4 from 3 independent runs.” left out, “control. […]” for “control.”

[7] = test system: NF-κB pathway (786-O cells); experiment: RNA-seq after bortezomib, 786-O; assay type: cell-based, human
Method: as §1
In 6 wells, 1,000 786-O cells or 2,500 NCC432 cells were seeded and treated with DMSO control or increasing concentration of drugs for 7 days and stained with crystal violet. For drug screening, we used SGC epigenetic probe collection. For RNA-seq with bortezomib treatment, 2×10^5 786-O cells were treated with DMSO or 0.005 μM bortezomib and harvested 9 hours after treatment for RNA extraction. For RT-qPCR with SMARCA2/4 ATPase inhibitor treatment, 1×10^5 786-O cells were treated with DMSO or 0.01 μM SMARCA2/4 ATPase inhibitor (Targetmol, T10616, CAS: 2270879-17-7) for 3 days before RNA extraction.
Total RNA was extracted using the Qiagen RNeasy Mini kit. RNA-seq libraries were prepared using Illumina Tru-Seq Stranded Total RNA kit protocol, according to the manufacturer's instructions (Illumina, San Diego, California, USA). […] Sequencing was performed on an Illumina HiSeq4000 sequencer with the paired-end 150 bp read option.
RNA-Seq Pathway Analysis RNA-seq data were mapped to hg19 (h117d5) using STAR, with GENCODE annotation (gencode.v19.annotation.gtf) and recommended settings from STAR manual. Gene expression levels were quantified with STAR. […]

CC(C)C[C@H](NC(=O)[C@H](Cc1ccccc1)NC(=O)c1cnccn1)B(O)O [bortezomib]
survival, mice bearing PB1-deficient vs PB1-proficient cells ([1]; 0.5 mg/kg bortezomib): survived for a longer duration
tumor response, PB1-deficient vs PB1-proficient isogenic cells ([1]; 0.5 mg/kg bortezomib, NSG mice): responded better
median survival ([1]; NCC432 EV, 0.5 mg/kg bortezomib arm n=14, PBS arm 42 days): 49 days
HR ([1]; NCC432 EV, bortezomib vs PBS, p=0.0009, log rank test): 2.5
median survival ([1]; NCC432 PBRM1, 0.5 mg/kg bortezomib arm n=14, PBS arm 55 days): 58 days
HR ([1]; NCC432 PBRM1, bortezomib vs PBS, p=0.5, log rank test): 1.2
effect on interaction between SMARCA4 and RELA [2]: did not significantly affect
reduction of colony formation, PB1-deficient vs PB1-proficient isogenic cells [3]: preferential reduction of colony formation
survival, mice bearing PB1-deficient vs PB1-proficient cells ([4]; 0.5 mg/kg bortezomib): survived for a longer duration
tumor response, PB1-deficient vs PB1-proficient isogenic cells ([4]; 0.5 mg/kg bortezomib, NSG mice): responded better
median survival ([4]; 786-O KO, PBS arm 35 days): 66 days
HR ([4]; 786-O KO): 4.1
median survival ([4]; 786-O WT, PBS arm 39 days): 52 days
HR ([4]; 786-O WT): 4.1
selectivity for PB1-deficient tumors (summary) ([4]; 786-O and NCC432, Example 2 summary): selectively targets PB1-deficient tumors
suppressing the expression of NF-κB target genes [5]: effective at suppressing the expression of NF-κB target genes
reducing colony formation ([6]; 786-O with and without PBRM1, vs DMSO): reducing colony formation
reduction of colony formation, PB1-deficient vs PB1-proficient isogenic cells ([6]; 786-O, a week): preferential reduction of colony formation
effect on NF-κB pathway by global transcriptomics ([7]; 0.005 μM bortezomib, 9 hours, RNA-seq): downregulation of the NF-κB pathway
effect on NF-κB activation (summary) ([7]; Example 2 summary): reverses NF-κB activation
additional targets upregulated by PB1 loss that were suppressed ([7]; in addition to RELA targets, 786-O): 127 targets
